Measurements: patent US6207683A, “Benzocycloheptathiophene compounds” (Bridge Pharma, Inc., priority 1999, dated 2001)
Counter-ions that a name gives are not always drawn. Like-named read-outs stand apart in the source and are kept apart here.

How the values were obtained:
[1] = molecular target: T1, histamine H1 -receptors (membranes from bovine cerebellum) (Bos taurus, UniProt P30546); assay: [^3 H]pyrilamine binding assay, histamine H1-receptors
T1 construct: membranes from bovine cerebellum; from tissue; host or cells: bovine cerebellum membranes
Method: 1. Binding to histaminergic receptors
The affinities of the test compounds for histamine H1 -receptors were assessed using the [^3 H]pyrilamine binding assay, modified after Chang et al. Heterogeneity of Histamine H1 -Receptors. J. Neurochem. 1979, 32: 1653-1663 Briefly, membranes from bovine cerebellum were incubated with [^3 H]pyrilamine and the test compound at increasing concentrations. The specific binding of the radioactive ligand to the receptor was defined as the difference between total binding and nonspecific binding, determined in the presence of an excess of unlabelled ligand. IC50 values (concentration required to inhibit 50% of specific binding of [^3 H]pyrilamine) were determined by non linear regression analysis of the competition curves.

[2] = molecular target: T2, muscarinic M1 -receptors (bovine striatal membranes) (Bos taurus, UniProt F1N5C5); assay: biochemical; assay type: binding
T2 sequence (F1N5C5 1-460): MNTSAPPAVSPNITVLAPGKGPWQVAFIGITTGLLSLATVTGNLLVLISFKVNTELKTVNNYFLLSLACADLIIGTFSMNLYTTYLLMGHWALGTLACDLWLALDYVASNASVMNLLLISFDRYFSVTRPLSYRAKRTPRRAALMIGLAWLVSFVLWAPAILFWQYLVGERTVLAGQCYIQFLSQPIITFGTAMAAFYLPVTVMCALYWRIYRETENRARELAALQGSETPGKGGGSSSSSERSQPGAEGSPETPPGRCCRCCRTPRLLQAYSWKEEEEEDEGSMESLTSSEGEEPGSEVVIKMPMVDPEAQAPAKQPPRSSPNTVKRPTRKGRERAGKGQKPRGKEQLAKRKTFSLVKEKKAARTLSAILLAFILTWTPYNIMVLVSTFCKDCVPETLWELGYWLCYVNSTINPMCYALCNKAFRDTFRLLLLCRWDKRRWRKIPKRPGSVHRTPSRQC
Method: 2. Binding to muscarinic receptors
The affinities of the test compounds for muscarinic M1 -receptors were assessed using the [^3 H]pirenzepine binding assay, modified after Luthin et al. [^3 H]Pirenzepine and [^3 H]QNB binding to brain muscarinic cholinergic receptors. Molec. Pharmac. 1984, 26: 164-169. Briefly, the experiments were carried out on bovine striatal membranes expressing muscarinic M1 -receptors. After incubation with the test article and the proper radioligand and washing, bound radioactivity is determined with a […], using a commercial scintillation cocktail. The specific radioligand binding to each receptor is defined as the difference between total binding and nonspecific binding determined in the presence of an excess of unlabelled ligand. IC50 values (concentrations required to inhibit 50% of specific binding) were determined by non linear regression analysis of the competition curves.

[3] = test system: physostigmine-induced lethality; assay: Physostigmine-induced lethality test (sedative effects); assay type: in vivo; conditions: survivors of 10 mice 30 min after physostigmine 1.9 mg/kg s.c.; oral treatment 60 min before, mg/kg: Ketotifen 107, Nor-ketotifen 83, Example 2 94, Example 5 108, Astemizole 115
Method: 3. Studies on sedative effects
The physostigmine-induced lethality test used in these tests is a modification of the sedation test technique reported by COLLIER et al., in Br. J. Pharmac., 1968, 32: 295-310. In short, physostigmine (1.9 mg/kg s.c.) produces 100% lethality when given to grouped mice with 10 animals in each plastic cage (approx. 11×26×13 cm). Mice administered a sedating antihistamine prior to physostigmine are protected and survive. In the present study, test compounds were administered orally 60 minutes prior to physostigmine. The number of survivors were counted 30 minutes after physostigmine administration. The doses in the CNS test were half of the molecular weights of the test compounds, expressed in mg/kg body weight.

[4] = Sedative activity (general statement); assay type: in vivo; conditions: statement in words
[5] = inhibition of 50% of specific binding of [^3 H]pyrilamine, bovine cerebellum membranes, read-out: IC50
[6] = inhibition of 50% of specific [^3 H]pirenzepine binding, bovine striatal membranes, read-out: IC50

T1 sequence (P30546 whole entry): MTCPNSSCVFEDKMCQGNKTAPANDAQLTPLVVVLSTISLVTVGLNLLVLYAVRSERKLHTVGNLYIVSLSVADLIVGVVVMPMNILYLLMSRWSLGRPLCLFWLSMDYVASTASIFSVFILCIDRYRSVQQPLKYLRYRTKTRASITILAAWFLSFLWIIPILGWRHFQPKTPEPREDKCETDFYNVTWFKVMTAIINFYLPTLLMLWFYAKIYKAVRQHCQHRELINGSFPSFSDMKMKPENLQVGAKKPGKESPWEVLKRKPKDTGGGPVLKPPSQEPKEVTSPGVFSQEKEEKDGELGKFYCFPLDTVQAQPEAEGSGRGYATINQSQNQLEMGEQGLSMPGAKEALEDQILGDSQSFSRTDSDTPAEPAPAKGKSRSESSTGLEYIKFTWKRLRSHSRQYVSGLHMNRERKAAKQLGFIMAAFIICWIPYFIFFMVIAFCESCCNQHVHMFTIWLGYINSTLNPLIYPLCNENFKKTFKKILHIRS

Compound	IC50 [1, 5] [nM]	Survived [3]	IC50 [2, 6] [nM]	also measured
OC1Cc2ccccc2C(=C2CCNCC2)c2ccsc21 (stereo not drawn) [10-OH-NORKETOTIFEN, 10-OH-norketotifen]	113	–	–	–
CN1[C@@H]2CC[C@H]1C[C@@H](OC(=O)C(CO)c1ccccc1)C2 (stereo partly drawn) [ATROPINE Sulfate]	–	–	–	IC50 [2]: 0.574 nM
COc1ccc(CCN2CCC(Nc3nc4ccccc4n3Cc3ccc(F)cc3)CC2)cc1 [Astemizole]	–	1/10	–	–
O=C1Cc2ccccc2C(=C2CCN(CCO)CC2)c2ccsc21 [Example 2]	5.85	3/10	235	–
O=C(O)COCCN1CCC(=C2c3ccccc3CC(=O)c3sccc32)CC1 [Example 5]	69.5	0/10	880	–
CN1CCC(=C2c3ccccc3CC(=O)c3sccc32)CC1 [Ketotifen, ketotifen]	–	9/10	–	sedative activity / sedative side effects [4]: profound sedative side effects
O=C1Cc2ccccc2C(=C2CCNCC2)c2ccsc21 [Norketotifen, 4-(4-piperidylidene)-9,10-dihydro-4 H-benzo[4,5]cyclo-hepta[1,2-] thiophene-10-one]	–	3/10	261	IC50 [1]: 43.6 nM
Cc1ccc(/C(=C\CN2CCCC2)c2ccccn2)cc1 [TRIPROLIDINE HCl]	14.1	–	–	–
